The test concerns HCV 1b-377-neo replicon cells. As to the kind of experiment: HCV Replicon assay, HCV 1b genotype. The following applies: Hepatitis C virus. The test is classed as cell-based. On the procedure:
An HCV Replicon assay was utilized in the present disclosure, and was prepared, conducted and validated as described in commonly owned PCT/US2006/022197 and in O'Boyle et. al. Antimicrob Agents Chemother. 2005 April; 49(4): 1346-53.
HCV 1b-377-neo replicon cells were used to test the currently described compound series as well as cells resistant to compound A containing a Y2065H mutation in NS5A (described in application PCT/US2006/022197). The compounds tested were determined to have more than 10-fold less inhibitory activity on cells containing the mutation than wild-type cells indicating a related mechanism of action between the two compound series. Thus, the compounds of the present disclosure can be effective to inhibit the function of the HCV NS5A protein and are understood to be as effective in combinations as previously described in application PCT/US2006/022197 and commonly owned WO/04014852. Further, the compounds of the present disclosure can be effective against the HCV 1b genotype. It should also be understood that the compounds of the present disclosure can inhibit multiple genotypes of HCV. […] In one embodiment compounds of the present disclosure are active against the 1a, 1b, 2a, 2b, 3a, 4a, and 5a genotypes.
On the technique in general: A replicon is a self-replicating genome or part of one, used to study replication in cells.

Setting [1] is: class symbol, read-out: EC50 range against HCV 1b.

Read-outs that look alike come from different tables or passages of the source.

A word on the EC50: it is the concentration giving half of the maximal effect.

For the molecule `COC(=O)N[C@@H](C)C(=O)N1CCC[C@H]1c1ncc(-c2ccc3c(c2)[nH]c2cc(-c4cnc([C@@H]5CCCN5C(=O)[C@H](C)NC(=O)OC)[nH]4)ccc23)[nH]1` [Example 30, methyl ((1S)-2-((2S)-2-(5-(7-(2-((2S)-1-(N-(methoxycarbonyl)-L-alanyl)-2-pyrrolidinyl)-1H-imidazol-5-yl)-9H-carbazol-2-yl)-1H-imidazol-2-yl)-1-pyrrolidinyl)-1-methyl-2-oxoethyl)carbamate], under “value in nM, read-out: EC50 value against HCV 1b”, the EC50 was 20 nM.
Turning to `COCC[C@H](NC(=O)OC)C(=O)N1CCC[C@H]1c1ncc(-c2ccc3c(c2)[nH]c2cc(-c4cnc([C@@H]5CCCN5C(=O)[C@H](CCOC)NC(=O)OC)[nH]4)ccc23)[nH]1` [Example 31, methyl ((1S)-3-methoxy-1-(((2S)-2-(5-(7-(2-((2S)-1-(N-(methoxycarbonyl)-O-methyl-L-homoseryl)-2-pyrrolidinyl)-1H-imidazol-5-yl)-9H-carbazol-2-yl)-1H-imidazol-2-yl)-1-pyrrolidinyl)carbonyl)propyl) carbamate], the EC50 under setting [1] fell in the range of 1 to 99 nM.
On the same count and under the same terms, as for `COC(=O)N[C@H](C(=O)N1CCC[C@H]1c1ncc(-c2ccc3c(c2)[nH]c2cc(-c4cnc([C@@H]5CCCN5C(=O)[C@@H](NC(=O)OC)C(C)C)[nH]4)ccc23)[nH]1)C(C)C` [Example 32], the figure is 0.101 to 0.999 nM; as for `COCCn1c2cc(-c3cnc([C@@H]4CCCN4C(=O)[C@@H](NC(=O)OC)C(C)C)[nH]3)ccc2c2ccc(-c3cnc([C@@H]4CCCN4C(=O)[C@@H](NC(=O)OC)C(C)C)[nH]3)cc21` [Example 33, methyl ((1S)-1-(((2S)-2-(5-(7-(2-((2S)-1-((2S)-2-((methoxycarbonyl)amino)-3-methylbutanoyl)-2-pyrrolidinyl)-1H-imidazol-5-yl)-9-(2-methoxyethyl)-9H-carbazol-2-yl)-1H-imidazol-2-yl)-1-pyrrolidinyl)carbonyl)-2-methylpropyl)carbamate], 0.001 to 0.1 nM.
`COCCn1c2cc(-c3cnc([C@@H]4CCCN4C(=O)[C@H](C)NC(=O)OC)[nH]3)ccc2c2ccc(-c3cnc([C@@H]4CCCN4C(=O)[C@H](C)NC(=O)OC)[nH]3)cc21` [Example 34, methyl ((1S)-2-((2S)-2-(5-(7-(2-((2S)-1-(N-(methoxycarbonyl)-L-alanyl)-2-pyrrolidinyl)-1H-imidazol-5-yl)-9-(2-methoxyethyl)-9H-carbazol-2-yl)-1H-imidazol-2-yl)-1-pyrrolidinyl)-1-methyl-2-oxoethyl)carbamate]: the EC50 under setting [1] fell in the range of 1 to 99 nM.
`COCCn1c2cc(-c3cnc([C@@H]4CCCN4C(=O)[C@@H](NC(=O)OC)[C@@H](C)OC)[nH]3)ccc2c2ccc(-c3cnc([C@@H]4CCCN4C(=O)[C@@H](NC(=O)OC)[C@@H](C)OC)[nH]3)cc21` [Example 35, methyl ((1S,2R)-2-methoxy-1-(((2S)-2-(5-(7-(2-((2S)-1-(N-(methoxycarbonyl)-O-methyl-L-threonyl)-2-pyrrolidinyl)-1H-imidazol-5-yl)-9-(2-methoxyethyl)-9H-carbazol-2-yl)-1H-imidazol-2-yl)-1-pyrrolidinyl)carbonyl)propyl)carbamate]: the EC50 (value in pM, read-out: EC50 value against HCV 1b) was determined as 0.662 nM.
